# Laboratory results from patent US5661154A (priority 1988, dated 1997).
# “Also recorded” adds a separate entry of the source. Read-outs that look alike come from different tables or passages of the source.
# Experiments:
# [1] = system: xanthine oxidase; conditions: cited from earlier work; for inhibiting the enzyme xanthine oxidase: allopurinol and oxypurinol compared with each other
# [2] = cited from earlier work
# [3] = portion of allopurinol; cited from earlier work
# [4] = system: serum uric acid; experiment: Uric acid decreasing effect in test persons with hyperuricaemia; format: in vivo; conditions: for decrease of the serum uric acid level: daily 384 mg sodium oxypurinol or 300 mg allopurinol, two weeks; for decrease of the serum uric acid level (in words): sodium oxypurinol compared with allopurinol
# [5] = Stability of the salt on air and on drying; format: physicochemical
# Method: The salt is stable on air and endures drying temperatures up to about 70° C.
# [6] = Solubility; format: physicochemical; conditions: methanol/water 3:1, organic solvent or mixture; 25° C.; read-out: solubility in methanol/water (3:1 by vol.)
# Text: (§1) Said sodium salt is monosodium oxypurinol monohydrate. The salt is white and crystallizes in fine needles.
# [7] = pH value of aqueous solution; format: physicochemical; conditions: 5% aqueous solution
# Text: However, from the examples it can be seen that not the pure sodium salt was used, but a mixture of salt and excess sodium hydroxide solution. This follows especially from the pH values of about 1 to 2% solutions, being 11.5 or 12.0. The sodium salt having been prepared by the applicant in pure and crystalline form for the first time has a pH value of 9.7 in 5% aqueous solution, and crystallizes as the monohydrate.
# as §1
Compound,inhibiting the enzyme xanthine oxidase [1],activity of allopurinol itself ([1]; therapeutic effect only after metabolizing to oxypurinol),resorbable upon peroral application ([2]; in vivo),excreted via kidneys [3] [%],decrease of the serum uric acid level [4] [mg/100 ml],decrease of the serum uric acid level (in words) [4],"resorbable upon peroral application ([2]; from galenic formulations, per os)",endures drying temperatures up to ([5]; drying),stability on air ([5]; on air),decrease of the serum uric acid level (in words) ([4]; monohydrate),solubility [6] [µg/mL],pH value [7]
Oc1ncnc2[nH]ncc12 [allopurinol],equally strongly,little activity itself,well resorbable,3 to 10,2.0,comparable; also recorded: approximately equal decrease,–,–,–,–,–,–
"Oc1nc(O)c2cn[nH]c2n1 [oxypurinol, 4,6-dihydroxypyrazolo[3,4-d]pyrimidine]",equally strongly,–,–,–,–,–,no success was achieved in finding a galenic formulation being sufficiently resorbable per os,–,–,–,–,–
"Oc1nc(O)c2cn[nH]c2n1 [sodium oxypurinol, monosodium oxypurinol monohydrate]",–,–,–,–,2.1,–,–,about 70 °C,stable on air,comparable; also recorded: approximately equal decrease,~2000,9.7
